Results published in publication PMC6149849, “Cymantrenyl-Nucleobases: Synthesis, Anticancer, Antitrypanosomal and Antimicrobial Activity Studies” (Molecules : A Journal of Synthetic Chemistry and Natural …, 2017).
Read-outs that look alike come from different tables or passages of the source.

Experiments:
[1] = tested on: SKOV-3 cells; experiment: Apoptotic/necrotic cell death, Hoechst 33258/propidium iodide staining, fluorescence microscopy; type: cell-based, human; conditions: for increase of apoptotic cells compared to untreated control cells: SKOV-3, 24 h treatment with IC50 concentrations, post-treatment 24 and 48 h
Procedure: (§1) To determine the mode of cell death that was triggered by cymantrene derivatives, appropriately stained SKOV-3 cells were evaluated for morphological changes using fluorescence microscopy. For evaluation of apoptosis and autophagy, cells were stained with Hoechst 33258/propidium iodide to distinguish between live, apoptotic and necrotic cells and reveal condensed chromatin and apoptotic bodies (a hallmark of apoptosis), and with acridine orange to detect the development of acidic vesicular organelles (AVOs—a hallmark of autophagy).
(§2) One day prior to the experiments, cells were seeded at the appropriate density into 35 mm diameter dishes. […] At the end of incubation, the medium was aspirated, the cell monolayer was washed twice with pre-warmed PBS, and fresh medium was added. The cells were cultured in drug-free medium for an additional 24 or 48 h to enable them to recover after the exposure to the compounds and to repair any induced damages.
Quantitative analysis of morphological changes that are associated with apoptosis, necrosis, and autophagy were assessed using a fluorescence microscope (Olympus IX70, Tokyo, Japan) at 400× magnification, as described elsewhere. At the indicated time points, cells were washed with PBS, trypsinized, and centrifuged at 1000 rpm (fixed angle rotor, 72× g) for 5 min at 37 °C. The supernatant was removed and the cell pellet (100 µL) was transferred to the Eppendorf tube, mixed with Ho33258 (2 µL, 0.13 mM) and PI (2 µL, 0.23 mM), and incubated for 5 min in the dark at room temperature. At least 300 stained cells were counted in triplicate in each of the three independent experiments. Cells were classified as live, apoptotic, or necrotic on the basis of their morphological and staining characteristics, and each fraction was related to the total cell number.

[2] = tested on: bloodstream forms of T. brucei clone 427-221a; experiment: Trypanocidal assay, resazurin viability assay; type: cell-based, Trypanosoma brucei
Procedure: (§3) All of the cultures were maintained at 37 °C in a humidified atmosphere containing 5% of CO2. Toxicity assays were performed, as previously described, with some modifications. In brief, trypanosomes and HL-60 cells were seeded at an initial cell density of 10^4/mL and 5 × 10^4/mL, respectively, in 96-well plates in a final volume of 200 μL culture medium containing various concentrations of test compounds dissolved in 100% DMSO. […] The controls contained DMSO alone. In all of the experiments, the final DMSO concentration was 0.9%. After 24 h incubation, 20 µL of a 0.5 mM resazurin solution prepared in PBS was added and the cultures were incubated for a further 48 h. Resazurin is a vital dye that, when being reduced by living cells, changes its colour from blue to pink. Thus, by measuring absorbance, the proliferation of cells can be easily determined. The change in absorbance was read with a microplate reader using a test wavelength of 570 nm and a reference wavelength of 630 nm. GI50 values were calculated by linear interpolation according to the method described by Huber and Koella. MIC values were determined microscopically.

[3] = tested on: S. aureus ATCC 29213 (MSSA); experiment: Antibacterial liquid microdilution (CLSI M07-A8); type: cell-based, Staphylococcus aureus; conditions: 18 to 24 h
Procedure: (§4) Organometallic compounds play an increasingly important role in the search for new antibacterial agents. We, therefore, thought to investigate also the bactericidal activity of the newly synthesized cymantrenes 1–7, compound C and CymH. The antibacterial activity of the compounds was tested against Gram-positive methicillin-sensitive Staphylococcus aureus (MSSA), methicillin-resistant S. aureus (MRSA), vancomycin-intermediate S. aureus (VISA), S. epidermidis, and Gram-negative Escherichia coli bacterial strains, and expressed as minimal inhibitory concentration (MIC) values (Table 3).
(§5) The antibacterial activity of CymH, 1–7 and C and the reference drugs penicillin G and polymyxin B was tested by the liquid microdilution method under standard conditions using twofold dilution series, as described in the Clinical and Laboratory Standards Institute (CLSI), reference method M07-A8, and expressed as minimal inhibitory concentration (MIC) values. A panel of Gram-positive bacterial strains, S. aureus ATCC® 29213 (sensitive to methicillin, (MSSA)), S. aureus ATCC® 43300 (resistant to methicillin, (MRSA)), S. aureus ATCC 700787™ (intermediate to vancomycin, (VISA)), and S. epidermidis ATCC 12228™, and one Gram-negative, strain E. coli ATCC BAA-198™ (ESBL) were used. In addition, four clinical isolates of S. aureus (MSSA and MRSA) and two clinical isolates of S. epidermidis that were collected from different patients at the Medical University of Warsaw, Poland, were also tested. The bacterial cells were cultivated on tryptic soy agar (TSA) and nutrient agar (NA), according to ATCC recommendations. All of the strains were incubated at 37 °C. Tested compounds were dissolved in DMSO and then serially diluted twofold with cation-adjusted Mueller-Hinton broth (CAMHB). Then, 95 µL of the dilutions were dispensed into microdilution sterile plates (Mar-Four), followed by the addition of 5 µL of bacteria inoculum containing 5 × 10^4 CFU/mL. The final concentrations of the compounds ranged from 512 to 2 µg/mL. Each compound was tested in triplicate, and Penicillin G (8–0.15 µg/mL) and Polymyxin B (256–0.0625 µg/mL) were used as controls. The plates were incubated at 37 °C for 18 to 24 h depending on the bacterial strain. Thereafter, the absorbance was measured at λ = 540 nm and λ = 595 nm using a Spectrostar Omega microplate reader (BMG Labtech, Offenburg, Germany). The MIC value was defined as the lowest concentration of a compound that reduced the growth by 100%.

[4] = tested on: S. aureus ATCC 700787 (VISA); experiment: Antibacterial liquid microdilution (CLSI M07-A8); type: cell-based, Staphylococcus aureus; conditions: 18 to 24 h
Procedure: as §4, §5

[5] = tested on: S. aureus ATCC 43300 (MRSA); experiment: Antibacterial liquid microdilution (CLSI M07-A8); type: cell-based, Staphylococcus aureus; conditions: 18 to 24 h
Procedure: as §4, §5

[6] = tested on: HepG2 (hepatocellular carcinoma); experiment: MTT cytotoxicity assay, HepG2; type: cell-based, human
Procedure: (§6) Anticancer activity of cymantrenes was determined using a panel of human cancer cell lines that were derived from solid tumors. […] The inhibitory effect of cymantrene derivatives on cell proliferation and growth was determined based on survival curves and was expressed as IC50 values (concentration required to achieve a 50% decrease in cell viability when compared to the viability of untreated control cells) calculated using GraphPad Prism 4.02 software for Windows (GraphPad Software, San Diego, CA, USA). Cell viability was determined by the MTT microplate spectrophotometric cytotoxicity test.
(§7) The cytotoxicity of cymantrene derivatives was evaluated by the MTT microplate methods as described elsewhere [67] by incubating the cells with increasing concentrations of tested compounds for 24 h. Briefly, 0.1 mL of logarithmically growing cells were seeded in a 96-well microplate (5 × 10^4 cells/well) a day before the experiments and after 24 h of culture, tested compounds, dissolved in DMSO, and diluted in culture medium, were added. […] After further incubation for 24 h, the medium was replaced with fresh medium and the cells were allowed to grow for additional 48 h. Then, the medium was aspirated and 0.05 mL of MTT (final concentration of 5 mg/mL medium) added to each well, and the cells were incubated for further 4 h. The absorbance of the product, resulting from the MTT reduction, was read with a microplate reader at 545 nm. The percentage of viable cells was calculated by comparing the absorbance of treated cells with that of the untreated control cells (taken as 100%). The IC50 concentration of each compound was calculated from the cell survival curves using GraphPad Prism 4.02 software for Windows (GraphPad Software, San Diego, CA, USA).

[7] = tested on: E. coli ATCC BAA-198 (ESBL); experiment: Antibacterial liquid microdilution (CLSI M07-A8); type: cell-based, Escherichia coli; conditions: 18 to 24 h
Procedure: as §4, §5

[8] = tested on: SKOV-3 cells; experiment: Autophagy (acidic vesicular organelles, AVOs), acridine orange staining; type: cell-based, human; conditions: SKOV-3, IC50 concentrations 24 h, then 0, 24 or 48 h drug-free
Procedure: as §1, §2
The ability of tested compounds to induce autophagosome formation inside cells (the process associated with the induction of autophagy) was evaluated by microscopic examination of the morphology of cells stained with acridine orange (AO).

[9] = tested on: SKOV-3 (ovarian adenocarcinoma); experiment: MTT cytotoxicity assay, SKOV-3; type: cell-based, human
Procedure: as §6, §7

[10] = tested on: S. epidermidis ATCC 12228; experiment: Antibacterial liquid microdilution (CLSI M07-A8); type: cell-based, Staphylococcus epidermidis; conditions: 18 to 24 h
Procedure: as §4, §5

[11] = tested on: U87-MG (glioblastoma); experiment: MTT cytotoxicity assay, U87-MG; type: cell-based, human
Procedure: as §6, §7

[12] = tested on: MDA-MB-231 (triple negative breast adenocarcinoma); experiment: MTT cytotoxicity assay, MDA-MB-231; type: cell-based, human
Procedure: as §6, §7

[13] = tested on: human myeloid leukemia HL-60 cells; experiment: in vitro
Procedure: as §3

[14] = tested on: MCF-7 (hormone-responsive breast adenocarcinoma); experiment: MTT cytotoxicity assay, MCF-7; type: cell-based, human
Procedure: as §6, §7

[15] = tested on: MCF-7/DX (estrogen-responsive breast adenocarcinoma resistant to doxorubicin); experiment: cells; type: cell-based, human
Procedure: as §7

[16] = tested on: A549 (non-small cell lung carcinoma); experiment: MTT cytotoxicity assay, A549
Procedure: Anticancer activity of cymantrenes was determined using a panel of human cancer cell lines that were derived from solid tumors. These included cell lines of estrogen-responsive, doxorubicin resistant, and triple negative breast adenocarcinomas (MCF-7, MCF-7/DX, and MDA-MB-231), ovarian adenocarcinoma (SKOV-3), non-small cell lung carcinoma (A549), hepatocellular carcinoma (HepG2), and glioblastoma (U-87 MG). The inhibitory effect of cymantrene derivatives on cell proliferation and growth was determined based on survival curves and was expressed as IC50 values (concentration required to achieve a 50% decrease in cell viability when compared to the viability of untreated control cells) calculated using GraphPad Prism 4.02 software for Windows (GraphPad Software, San Diego, CA, USA). Cell viability was determined by the MTT microplate spectrophotometric cytotoxicity test.
Anticancer activity of cymantrene derivetives were determined on the basis of their cytotoxic effects on a panel of human cancer cells, as derived from different types of solid tumors: estrogen responsive breast adenocarcinoma (MCF-7), triple negative breast adenocarcinoma (MDA-MB-231), ovarian adenocarcinoma (SKOV-3), non-small cell lung carcinoma (A549), hepatocellular carcinoma (HepG2), and glioblastoma (U-87 MG). Additionally, doxorubicin resistant breast adenocarcinoma cells (MCF-7/Dox) were also included for comparison. All of the cell lines were purchased from American Type Culture Collection (ATCC, Rockville, MD, USA), except the MCF-7/dox cell line, which was a generous gift from Professor Malgorzata Latocha from the Department of Cell Biology, Medical University of Silesia in Katowice, Poland.
Cells were grown as a monolayer in DMEM growth medium, supplemented with 10% FBS, penicillin (10 U/mL) and streptomycin (50 μg/mL), under standard conditions (37 °C, 5% CO2 and 95% air, 100% humidity) and periodically checked for Mycoplasma contamination.
The cytotoxicity of cymantrene derivatives was evaluated by the MTT microplate methods as described elsewhere by incubating the cells with increasing concentrations of tested compounds for 24 h. Briefly, 0.1 mL of logarithmically growing cells were seeded in a 96-well microplate (5 × 10^4 cells/well) a day before the experiments and after 24 h of culture, tested compounds, dissolved in DMSO, and diluted in culture medium, were added. […] After further incubation for 24 h, the medium was replaced with fresh medium and the cells were allowed to grow for additional 48 h. Then, the medium was aspirated and 0.05 mL of MTT (final concentration of […] medium) added to each well, and the cells were incubated for further 4 h. The absorbance of the product, resulting from the MTT reduction, was read with a microplate reader at 545 nm. The percentage of viable cells was calculated by comparing the absorbance of treated cells with that of the untreated control cells (taken as 100%). The IC50 concentration of each compound was calculated from the cell survival curves using GraphPad Prism 4.02 software for Windows (GraphPad Software, San Diego, CA, USA).

[17] = tested on: bloodstream forms of T. brucei clone 427-221a; conditions: cited from earlier work
[18] = tested on: human myeloid leukemia HL-60 cells; conditions: cited from earlier work

| Compound | increase of apoptotic cells compared to untreated control cells [1] | IC50 [6] [µM] | induction of autophagy (cells containing AVOs) [8] | IC50 [9] [µM] | IC50 [11] [µM] | IC50 [12] [µM] | IC50 [14] [µM] | GI50 [17] [µM] | T. brucei MIC [17] [µM] | GI50 [18] [µM] | further results |
| --- | --- | --- | --- | --- | --- | --- | --- | --- | --- | --- | --- |
| O=c1[nH]c(=O)n(CCC(O)[C]23[CH]4[CH]5[CH]6[CH]2[Mn]5643)cc1F.[C-]#[O+].[C-]#[O+].[C-]#[O+] (racemic) [Compound 2] | 11 fold | > 150 | greatest autophagic changes | 97.5 ± 2.87 | 100 ± 1.01 | > 150 | 119 ± 2.97 | – | – | – | apoptotic cell fraction predominantly increased ([1]; SKOV-3, IC50 concentrations): late-apoptotic cell fraction; GI50 ([2]; 50% growth inhibition): > 100 µM; MIC ([2]; concentration at which all cells were killed, determined microscopically): >100 µM; MIC, S. aureus ATCC 29213 (MSSA) [3]: >512 µg/mL; MIC, S. aureus ATCC 700787 (VISA) [4]: >512 µg/mL; MIC, S. aureus ATCC 43300 (MRSA) [5]: >512 µg/mL; MIC, E. coli ATCC BAA-198 [7]: >512 µg/mL; MIC, S. epidermidis ATCC 12228 [10]: >512 µg/mL; GI50 [13]: > 100 µM; HL-60 MIC [13]: >100 µM |
| COc1cccc2c1C(=O)c1c(O)c3c(c(O)c1C2=O)C[C@@](O)(C(=O)CO)C[C@@H]3O[C@H]1C[C@H](N)[C@H](O)[C@H](C)O1 [DOX, doxorubicin, reference compound] | – | – | – | – | – | – | – | – | – | – | IC50 ([15]; Homo sapiens, MCF7/DX, 24 h, read-out: cytotoxicity IC50, MCF-7/DX): 48.5 ± 2.78 µM; fold less effective against MCF-7/DX cells than MCF-7 cells ([15]; MCF-7/DX vs MCF-7): ~100 fold; IC50 ([6]; Homo sapiens, HepG2, 24 h, read-out: cytotoxicity IC50, HepG2): 0.569 ± 0.021 µM; IC50 ([16]; Homo sapiens, A549, 24 h, read-out: cytotoxicity IC50, A549): 0.3 ± 0.018 µM; IC50 ([9]; Homo sapiens, SK-OV-3, 24 h, read-out: cytotoxicity IC50, SKOV-3): 0.858 ± 0.044 µM; IC50 ([11]; Homo sapiens, U-87 MG, 24 h, read-out: cytotoxicity IC50, U87-MG): 0.61 ± 0.029 µM; IC50 ([12]; Homo sapiens, MDA-MB-231, 24 h, read-out: cytotoxicity IC50, MDA-MB-231): 1.07 ± 0.062 µM; IC50 ([14]; Homo sapiens, MCF7, 24 h, read-out: cytotoxicity IC50, MCF-7): 0.439 ± 0.026 µM |
| NCCCC(N)(C(=O)O)C(F)F (stereo not shown) [DFMO, difluoromethylornithine, reference compound] | – | – | – | – | – | – | – | 23.9 | >125 | – | – |
| Nc1ncnc2c1ncn2CCC(O)[C]12[CH]3[CH]4[CH]5[CH]1[Mn]4532.[C-]#[O+].[C-]#[O+].[C-]#[O+] (racemic) [Compound B] | only a three-fold increase | > 150 | Less induction of autophagy | > 150 | > 150 | > 150 | > 150 | 30.8 ± 3.5 | >100 | > 100 | Selectivity GI50 Ratio ([17]; HL-60 / T. brucei): >3.2; IC50 [16]: > 150 µM |
| O=C(CCn1ccc(=O)[nH]c1=O)[C]12[CH]3[CH]4[CH]5[CH]1[Mn]4532.[C-]#[O+].[C-]#[O+].[C-]#[O+] (stereo not shown) [non-fluorinated counterpart] | – | – | – | – | – | – | – | 3.6 | 100 | > 100 | HL-60 MIC [18]: > 100 µM |
